ChEMBL document CHEMBL1201862, “PubChem BioAssay data set” (2004)
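Values below derive from 48-hour exposures of cells grown in 96-well plates, with endpoints linearly interpolated between the two concentrations bracketing the appropriate inhibition level. The concentration for 50% growth inhibition is given as GI50.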 Active and inactive are the calls of the source. Rule as the data show it: active = GI50 up to about 1.1 µM and inactive = higher.

Legend:
Experiment in all cases: inhibition of tumour cell growth, NCI panel, 48 h
[1] = tested on: NCI-H23
[2] = tested on: SF-295
[3] = tested on: HCC 2998
[4] = tested on: UO-31
[5] = tested on: COLO 205
[6] = tested on: HOP-62
[7] = tested on: LOX IMVI
[8] = tested on: SK-MEL-28
[9] = tested on: CCRF-CEM
[10] = tested on: NCI-H226
[11] = tested on: SNB-19
[12] = tested on: RPMI-8226
[13] = tested on: KM12
[14] = tested on: M14
[15] = tested on: SK-MEL-5
[16] = tested on: CAKI-1

Measured: GI50

CCOC(=O)Cn1c2ccccc2c(=O)c2cc(C)c(C)c(C#N)c21
inactive: [1] > 100 µM | [2] 40.4 µM | [3] > 100 µM | [4] 68.5 µM | [5] > 100 µM | [6] 40.7 µM | [7] > 100 µM | [8] > 100 µM | [9] > 100 µM | [10] > 100 µM | [11] > 100 µM | [12] > 100 µM

C[Si](C)(C)/C(Br)=C\CCN1C(=O)CCC1O (stereo not drawn)
inactive: [1] > 100 µM | [13] > 100 µM | [2] > 100 µM | [4] > 100 µM | [5] > 100 µM | [14] > 100 µM | [7] > 100 µM | [8] > 100 µM | [9] > 100 µM | [10] > 100 µM | [11] > 100 µM | [12] > 100 µM

CCCCCCCC(=O)OCC(C[As](=O)(O)O)OC(=O)CCCCCCC (stereo not drawn)
inactive: [1] 15.2 µM | [2] 16.6 µM | [3] 17.7 µM | [4] 15 µM | [5] 14.3 µM | [14] 15 µM | [6] 20.3 µM | [15] 18.1 µM | [8] 15.7 µM | [9] 6.49 µM | [10] 22.3 µM | [11] 14.8 µM | [12] 17.6 µM

C[n+]1c2ccccc2c(NC(CCC(N)=O)C(=O)O)c2ccccc21 (stereo not drawn)
inactive: [1] > 100 µM | [13] 73.5 µM | [2] > 100 µM | [3] > 100 µM | [4] > 100 µM | [5] > 100 µM | [14] > 100 µM | [6] > 100 µM | [15] > 100 µM | [10] > 100 µM | [11] > 100 µM | [12] 21 µM

CCc1cc2c(O)c(c1)Cc1cc(CC)cc(c1O)Cc1cc(CC)cc(c1O)Cc1cc(CC)cc(c1O)Cc1cc(CC)cc(c1O)Cc1cc(CC)cc(c1O)Cc1cc(CC)cc(c1O)C2
inactive: [1] > 100 µM | [13] > 100 µM | [2] > 100 µM | [3] > 100 µM | [4] > 100 µM | [5] > 100 µM | [14] > 100 µM | [6] > 100 µM | [15] > 100 µM | [8] > 100 µM | [9] > 100 µM | [11] 22.1 µM | [12] > 100 µM

Brc1cc2c(cc1Br)CN(c1ccccc1)C2
inactive: [1] > 100 µM | [13] > 100 µM | [2] > 100 µM | [3] > 100 µM | [4] > 100 µM | [5] > 100 µM | [14] > 100 µM | [6] > 100 µM | [7] > 100 µM | [15] > 100 µM | [8] > 100 µM | [9] > 100 µM | [10] > 100 µM | [11] > 100 µM | [12] > 100 µM

CC1C=CC(O)[C@]2(CO)CC3(CCC12)OCCO3 (stereo partly drawn)
inactive: [1] > 100 µM | [13] > 100 µM | [2] > 100 µM | [3] > 100 µM | [4] > 100 µM | [14] > 100 µM | [6] > 100 µM | [15] > 100 µM | [8] > 100 µM | [9] > 100 µM | [10] > 100 µM | [16] > 100 µM | [11] > 100 µM

O=S1OC(c2ccccc2)(c2ccccc2)C(c2ccccc2)(c2ccccc2)O1
inactive: [1] > 52.7 µM | [13] 5.43 µM | [2] 14.1 µM | [3] > 100 µM | [4] > 29.7 µM | [5] > 100 µM | [14] > 100 µM | [6] > 100 µM | [7] 2.56 µM | [15] 15.4 µM | [8] > 100 µM | [9] 7.01 µM | [10] > 100 µM | [11] > 100 µM | [12] 5.15 µM

NC(CNc1ccc(O)cc1)C(=O)O (stereo not drawn)
inactive: [13] > 100 µM | [2] > 100 µM | [4] > 100 µM | [5] > 100 µM | [14] 80.7 µM | [6] > 100 µM | [7] 60.8 µM | [15] > 100 µM | [8] > 100 µM | [9] 33.6 µM | [10] > 100 µM | [16] 81.8 µM | [11] > 100 µM | [12] > 100 µM

CCc1nc2c([nH]1)C(=O)c1ccccc1C2=O
inactive: [1] 29 µM | [13] 59.7 µM | [2] 45.7 µM | [3] 31.8 µM | [4] 80.9 µM | [14] 46.9 µM | [6] > 100 µM | [8] > 100 µM | [9] 48.5 µM | [10] 34 µM | [16] 47.8 µM | [11] 46.2 µM

COc1ccc(-c2oc3cc(O)c(OC)c(O)c3c(=O)c2OC2OC(CO)C(O)C(O)C2O)cc1 (stereo not drawn)
inactive: [1] > 100 µM | [13] > 100 µM | [2] > 100 µM | [3] > 100 µM | [4] 82 µM | [5] > 100 µM | [14] > 100 µM | [7] > 100 µM | [15] > 100 µM | [8] > 100 µM | [9] > 100 µM | [11] > 100 µM | [12] 21.2 µM

Cc1cc2c(cc1C)[n+]([O-])c(C(=O)C/C(=N/NC(=O)c1ccccc1O)C(=O)Nc1ccccc1C(C)C)c(C)[n+]2[O-]
inactive: [1] > 100 µM | [13] > 100 µM | [2] > 100 µM | [3] > 100 µM | [5] > 100 µM | [14] > 100 µM | [6] > 100 µM | [7] 87.3 µM | [15] > 100 µM | [8] > 100 µM | [9] 27.3 µM | [10] > 100 µM | [16] > 100 µM | [11] > 100 µM

C[C@H]1CC[P+](C)(c2ccccc2)C1 (stereo partly drawn)
inactive: [1] > 100 µM | [13] > 100 µM | [2] > 100 µM | [3] > 100 µM | [4] > 100 µM | [5] > 100 µM | [14] > 100 µM | [6] > 100 µM | [7] > 100 µM | [15] > 100 µM | [8] > 100 µM | [9] > 100 µM | [10] > 100 µM | [11] > 100 µM | [12] > 100 µM

CC1=C(C)CC2(CCCCC2=O)[S+]([O-])C1 (stereo not drawn)
inactive: [1] > 100 µM | [13] > 100 µM | [2] > 100 µM | [3] > 100 µM | [4] > 100 µM | [5] > 100 µM | [14] > 100 µM | [6] > 100 µM | [7] > 100 µM | [15] > 100 µM | [8] > 100 µM | [9] > 100 µM | [10] > 100 µM | [11] > 100 µM | [12] > 100 µM
